In patent publication US20250250252A1, “PIPERIDINYLBENZONITRILE DERIVATIVES AS INHIBITORS OF GLUTAMINYL-PEPTIDE CYCLOTRANSFERASE AND GLUTAMINYL-PEPTIDE CYCLOTRANSFERASE LIKE PROTEIN” (Boehringer Ingelheim International GmbH, priority 2024, published 2025):

Key:
[1] = Assay C: Permeability in CACO-2 cells; type: in vitro ADME; details: human, Assay C
Procedure: (§1) Caco-2 cells (1-2×10^5 cells/1 cm^2 area) are seeded on filter inserts (Costar transwell polycarbonate or PET filters, 0.4 μm pore size) and cultured (DMEM) for 10 to 25 days. Compounds are dissolved in appropriate solvent (like DMSO, 1-20 mM stock solutions). […] The transport solution (TL) is applied to the apical or basolateral donor side for measuring A-B or B-A permeability (3 filter replicates), respectively. Samples are collected at the start and end of experiment from the donor and at various time intervals for up to 2 hours also from the receiver side for concentration measurement by HPLC-MS/MS or scintillation counting. Sampled receiver volumes are replaced with fresh receiver solution.
(§2) Efflux ratio (ER)=permeability B-A/permeability A-B

QPCT = QPCT (Homo sapiens (Human), UniProt Q16769); assay: Assay A: biochemical QPCT activity assay (MALDI-TOF MS); details: read-out: Inhibition of QPCT: IC50
Chain of QPCT (Q16769 29-361): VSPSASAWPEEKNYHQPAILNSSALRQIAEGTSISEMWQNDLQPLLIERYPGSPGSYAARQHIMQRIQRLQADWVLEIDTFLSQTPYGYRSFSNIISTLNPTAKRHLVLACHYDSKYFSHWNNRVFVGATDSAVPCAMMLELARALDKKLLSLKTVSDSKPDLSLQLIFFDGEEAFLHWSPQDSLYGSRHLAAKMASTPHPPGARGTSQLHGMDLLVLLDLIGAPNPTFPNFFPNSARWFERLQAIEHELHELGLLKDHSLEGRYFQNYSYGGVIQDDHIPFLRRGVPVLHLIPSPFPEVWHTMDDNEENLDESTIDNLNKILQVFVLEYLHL
Procedure: (§3) QPCT or QPCTL dependent conversion of N-terminal glutamine to pyroglutamate of CD47 was monitored via MALDI-TOF MS. Test compounds were dissolved in 100% DMSO and serially diluted into clear 1,536-well microtiter plates. Enzymatic reactions were set up in assay buffer containing 20 mM Tris pH 7.5, 0.1 mM TCEP, 0.01% BSA, and 0.001% Tween20. […] The plates were incubated for 10 min in a humidified incubator at 24° C. Subsequently, 2.5 μL of CD47 peptide substrate surrogate (^19[…]^33) was added to each well (final concentration: 10 μM for QPCTL/20 μM for QPCT). The plates were mixed for 30 sec at 1,000 rpm and subsequently incubated for 40 min in a humidified incubator at 24° C. […] The plates were sealed with an adhesive foil, mixed for 30 s at 1,000 rpm and stored at room temperature until preparation of the MALDI target plates. […] QPCT or QPCTL activity was monitored by calculating the ratio between product and internal standard signals followed by normalization to high (100% activity) and low (0% activity) controls. Determination of compound potencies was obtained by fitting the dose-response data to a four-parameter logistical equation.

isolated QPCTL = isolated QPCTL (Homo sapiens (Human), UniProt Q9NXS2); details: disclosed in WO 2023/205173 [00470]; read-out: inhibitory activity on isolated QPCTL IC50; cited from earlier work
Chain of isolated QPCTL (Q9NXS2 whole entry, species assumed): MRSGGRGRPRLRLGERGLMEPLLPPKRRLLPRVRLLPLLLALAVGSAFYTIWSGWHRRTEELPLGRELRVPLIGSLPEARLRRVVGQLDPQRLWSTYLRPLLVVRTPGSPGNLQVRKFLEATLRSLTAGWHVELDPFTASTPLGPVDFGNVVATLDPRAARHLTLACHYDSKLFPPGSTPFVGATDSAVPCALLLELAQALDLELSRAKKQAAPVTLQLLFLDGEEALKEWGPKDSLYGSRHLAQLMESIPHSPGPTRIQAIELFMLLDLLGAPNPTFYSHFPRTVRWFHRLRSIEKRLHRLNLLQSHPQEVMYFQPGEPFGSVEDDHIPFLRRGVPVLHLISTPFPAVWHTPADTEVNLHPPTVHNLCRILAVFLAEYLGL

QPCTL = QPCTL (Homo sapiens (Human), UniProt Q9NXS2); assay: Assay A: biochemical QPCTL activity assay (MALDI-TOF MS); details: read-out: Inhibition of QPCTL: IC50
Chain of QPCTL (Q9NXS2 whole entry): as the sequence (Q9NXS2 whole entry, species assumed) above
Procedure: as §3

murine hepatocytes = assay: Assay E: Stability in murine hepatocytes; type: in vitro ADME, mouse; details: 1 μM
Procedure: The metabolic degradation of the test compound is assayed in a murine hepatocyte suspension.
Murine hepatocytes (typically cryopreserved) are incubated in an appropriate buffer system (e.g. Dulbecco's modified eagle medium plus 3.5 μg glucagon/500 mL, 2.5 mg insulin/500 mL and 3.75 mg/500 mL hydrocortison) containing 5% species serum.
Following a (typically) 30 min preincubation in an incubator (37° C., 10% CO2) 5 μl of test compound solution (80 μM; from 2 mM in DMSO stock solution diluted 1:25 with medium) are added into 395 μl hepatocyte suspension (cell density in the range 0.25-5 Mio cells/mL, typically 1 Mio cells/mL; final concentration of test compound 1 μM, final DMSO concentration 0.05%).
The cells are incubated for six hours (incubator, orbital shaker) and samples (2 μl) are taken at 0, 0.5, 1, 2, 4 and 6 hours. Samples are transferred into acetonitrile and pelleted by centrifugation (5 min). The supernatant is transferred to a new 96-deepwell plate, evaporated under nitrogen and resuspended.
CLint is calculated as follows CL_[…]=Dose/AUC=(C0/CD)/(AUD+clast/k)×1000/60. C0: initial concentration in the incubation [μM], CD: cell density of vital cells [10e6cells/mL], AUD: area under the data [μM×h], clast: concentration of last data point [μM], k: slope of the regression line for parent decline [h−1].
The calculated in vitro hepatic intrinsic clearance can be scaled up to the intrinsic in vivo hepatic Clearance and used to predict hepatic in vivo blood clearance (CL) by the use of a liver model (well stirred model).
CL_[…]_INVIVO[ml/min/kg]=(CL_[…][μL/min/10e6cells]×hepatocellularity[10e6cells/g liver]×liver factor[g/kg bodyweight])/1000
CL[ml/min/kg]=CL_[…]_INVIVO[ml/min/kg]×hepatic blood flow[ml/min/kg]/(CL_[…]_INVIVO[ml/min/kg]+hepatic blood flow[ml/min/kg])
Hepatocellularity,mouse:120×10e6cells/g liver
Liver factor,mouse:55 g/kg bodyweight
Blood flow,mouse:90 ml/(min×kg)

A549 cells = details: disclosed in WO 2023/205173 [00470]; read-out: cellular activity in A549 cells EC50; cited from earlier work
CYP3A4 mRNA = assay: Assay D: CYP induction screening assay in primary human hepatocytes; type: in vitro ADME; details: 48 h
Procedure: Cryopreserved plateable human hepatocytes (single donor, BioIVT) were thawed and plated in Collagen-I coated 96-well-plates at a cell density of 0.07 million cells per well.
After a 6 h attachment period, the seeding medium was replaced by serum-free William's medium E supplemented with Matrigel (0.25 mg/ml) and allowed to recover overnight. 24 h post-seeding, serum-free Williams E medium containing the test compound at a final concentration of 10 μM and a final DMSO content of 0.1% and 0.1% DMSO (solvents treated control), respectively, was added to predefined wells. Exposure solutions were renewed after 24 h.
After 48 h of treatment in total, the effect of the test compounds on CYP3A4 mRNA expression was assessed using the QuantiGene Plex Gene Expression Assay. Hepatocytes were lysed and total RNA was extracted using the QuantiGene Sample Processing Kit according to the instructions of the manufacturer.
mRNA quantification was conducted using a customized QuantiGene Plex Panel to analyse CYP3A4 and the housekeeper genes RPL32, EIF4E2 and GUSB according to the instructions of the manufacturer and measured on a Luminex™ instrument. Signal was reported as median fluorescence intensity (MFI), which is proportional to the number of target RNA molecules present in the sample.
For calculation of CYP3A4 mRNA induction, the signal for CYP3A4 was normalized against the geometric mean of the signal obtained for the housekeeper genes for hepatocytes exposed to test compounds in relation to solvent-treated samples according to the following equation:
n-fold induction=(MFI CYP3A4 (treated)/Xgeo MFI (RPL32,EIF4E2,GUSB))/(MFI CYP3A4 (solvent control)/Xgeo MFI (RPL32,EIF4E2,GUSB))

CACO-2 cells = assay: Assay C: Permeability in CACO-2 cells; type: in vitro ADME; details: pair comparison without/with 4-fluoropiperidyl
Procedure: as §1, §2

[2] = test system: SIRPα signalling induced by A549 cells; assay: Assay B: SIRPα signalling assay using A549 cells; type: cell-based; details: Homo sapiens, read-out: Inhibition of SIRPα signalling induced by A549 cells: IC50
Procedure: Two cell types are independently used: the Raji cell line (lymphoblast-like human cell line derived from B lymphocytes from a Burkitt's lymphoma patient in 1963) and A549 cells (adenocarcinomic human alveolar basal epithelial cells).
Test compounds were dissolved in 100% DMSO and serially diluted into a white 384-well microtiter cell culture plate (PerkinElmer #60076780 in case of Raji assay; PDL-coated plates Greiner #781945 in case of A549 assay). 5000 Raji cells (ATCC #CC86) or 5000 A549 cells (ATCC #CCL-185) in Assay Complete Cell Plating reagent 30 (DiscoverX 93-0563R30B) were added per well. The assay plate was incubated for 48 h at 37° C., 95% humidity and 5% CO2. 15000 reporter cells (Jurkat PathHunter SIRPαV1, DiscoverX #93-1135C19) were added to each well, and the plate was incubated for 5 h at 37° C., 95% humidity and 5% CO2. Bioassay reagent 1 of the PathHunter Bioassay detection kit (DiscoverX 93-0001) was added to each well of the plate using a multichannel pipette followed by a 15 min incubation at room temperature. Afterwards bioassay reagent 2 was added followed by 60 min incubation at room temperature (incubation in the dark).
The analysis of the data was performed using the luminescence signal generated by betagalactosidase in the PathHunter reporter cell line. The luminescence measurement was done using a Pherastar Multi-Mode Reader. Dose-response curves & IC50 data were calculated with 4-parameter sigmoidal dose response formula.

Ramos cells = details: disclosed in WO 2024/020517 [00698]; read-out: cellular activity in Ramos cells IC50; cited from earlier work

Compound: Cn1c(N)nnc1C1CCN(c2c(C#N)cccc2-c2ccc(F)nc2)CC1 [Compound 14, reference compound]
- efflux ratio ([1]; Caco-2, pH 7.2, permeability B-A/permeability A-B, read-out: Efflux Ratio): 22.2
- Papp A→B ([1]; pH 7.2, CACO-2 cells): 0.7 ×10⁻⁶ cm/s
- IC50 (QPCT): < 1 nM
- IC50 (isolated QPCTL): < 1000 nM
- IC50 (QPCTL): 1 nM
- Mouse Hepatocyte Stability QH (murine hepatocytes): 31%
- EC50 (A549 cells): < 1000 nM
- n-fold induction of CYP3A4 at 10 μM (CYP3A4 mRNA): 1.9 n-fold

Compound: Cn1cnnc1C1CCN(c2c(C#N)cccc2-c2ccc(F)nc2)CC1 [(1)/QP5020, reference compound]
- CACO2 Perm. (CACO-2 cells): 28.0 10^−6 cm/sec
- IC50 [2]: 8 nM
- IC50 (Ramos cells): < 100 nM
- Mouse Hepatocyte Stability QH (murine hepatocytes): 82%
